Source: PubChem BioAssay (NCI)
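Values below derive from 48-hour exposures of cells grown in 96-well plates, with endpoints linearly interpolated between the two concentrations bracketing the appropriate inhibition level. GI50 = concentration required for 50% inhibition of growth. TGI is the concentration that stops growth completely.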

Key:
Assay in all cases: inhibition of tumour cell growth, NCI panel, 48 h
ACHN renal = system: ACHN renal
CCRF-CEM leukemia = system: CCRF-CEM leukemia
DU-145 prostate = system: DU-145 prostate
HCT-116 colon = system: HCT-116 colon
MALME-3M melanoma = system: MALME-3M melanoma
SF-539 CNS = system: SF-539 CNS
SNB-75 CNS = system: SNB-75 CNS
SW-620 colon = system: SW-620 colon
TK-10 renal = system: TK-10 renal
NCI-H522 lung = system: NCI-H522 lung

SMILES	TGI (ACHN renal)	TGI (CCRF-CEM leukemia)	TGI (DU-145 prostate)	TGI (HCT-116 colon)	TGI (MALME-3M melanoma)	TGI (SF-539 CNS)	TGI (SNB-75 CNS)	TGI (SW-620 colon)	TGI (TK-10 renal)	TGI (NCI-H522 lung)	GI50 (CCRF-CEM leukemia)	GI50 (HCT-116 colon)	GI50 (MALME-3M melanoma)	GI50 (NCI-H522 lung)	GI50 (SF-539 CNS)	GI50 (SNB-75 CNS)	GI50 (SW-620 colon)	GI50 (ACHN renal)	GI50 (DU-145 prostate)	GI50 (TK-10 renal)
N#Cc1c(NC(=S)NC(=O)c2ccccc2)nc2c(c1-c1ccccc1)CCC2	> 100 µM	> 100 µM	> 100 µM	> 100 µM	> 100 µM	> 100 µM	> 100 µM	> 100 µM	> 100 µM	–	–	–	–	–	–	–	–	–	–	–
Nc1n[nH]c(=O)[nH]1	–	> 100 µM	–	> 100 µM	> 100 µM	> 100 µM	> 100 µM	> 100 µM	–	> 100 µM	–	–	–	–	–	–	–	–	–	–
O=[Se]([O-])c1ccccc1.O=[Se]([O-])c1ccccc1.[OH3+].[OH3+].[Pt+2]	–	> 35.9 µM	–	9.5 µM	54.2 µM	44.2 µM	33.8 µM	25.2 µM	–	13.4 µM	3.15 µM	3.14 µM	16.5 µM	2.51 µM	10.6 µM	6.17 µM	5.24 µM	–	–	–
C=CC(=O)Nc1cccc(-c2nc(SC)nc(Nc3ccccc3OC)c2C#N)c1	3.32 µM	> 100 µM	4.96 µM	–	3.44 µM	4.53 µM	4.35 µM	–	4.02 µM	6.53 µM	3.07 µM	–	1.54 µM	2.04 µM	1.93 µM	1.5 µM	–	1.7 µM	1.92 µM	1.99 µM
COC1OC(=O)[C@H]2O[N+]([O-])=C(C)[C@@H]12 (stereo partly specified)	–	> 100 µM	–	> 100 µM	> 100 µM	> 100 µM	> 100 µM	> 100 µM	–	> 100 µM	–	–	–	–	–	–	–	–	–	–
O=C(O)c1ccc(NC(c2ccccc2)c2ccc3cccnc3c2O)cc1 (stereo unspecified)	> 100 µM	6.05 µM	> 100 µM	> 100 µM	> 100 µM	25.9 µM	56.7 µM	> 55.8 µM	71.6 µM	55.8 µM	–	–	–	–	–	–	–	–	–	–
O=C(Nc1ccc(I)cc1C(=O)NCCO)c1cccs1	> 100 µM	> 100 µM	–	> 100 µM	–	> 100 µM	–	> 100 µM	–	> 100 µM	–	–	–	–	–	–	–	–	–	–
CCC(=O)C(c1ccccc1)c1ccccn1 (stereo unspecified)	> 100 µM	> 100 µM	> 100 µM	> 100 µM	> 100 µM	–	> 100 µM	> 100 µM	> 100 µM	> 100 µM	–	–	–	–	–	–	–	–	–	–
CSC1=Nc2ccccc2N(C)c2c1c(-c1ccccc1)nn2C	> 100 µM	53.1 µM	> 100 µM	> 100 µM	–	> 100 µM	> 100 µM	> 100 µM	> 100 µM	> 100 µM	–	–	–	–	–	–	–	–	–	–
Cc1[nH]c(/C=C2\C(=O)Nc3ccc(S(=O)(=O)Cc4c(Cl)cccc4Cl)cc32)c(C)c1C(=O)N1CCC[C@@H]1CN1CCCC1	3.07 µM	–	3.39 µM	–	–	2.89 µM	–	3.29 µM	3.85 µM	47.7 µM	–	–	–	19.7 µM	1.51 µM	–	1.78 µM	1.63 µM	1.85 µM	1.92 µM
O=C1CC(=O)N(c2ccccc2)N1/C(=C/c1ccccc1)c1ccccc1	89.5 µM	3.57 µM	82.6 µM	32 µM	–	–	83.2 µM	37.7 µM	48.6 µM	–	–	–	–	–	–	–	–	–	–	–
CCn1cc(C(c2ccc(Cl)cc2)n2ccnc2)c2cc(Br)ccc21 (stereo unspecified)	25.9 µM	–	30.3 µM	33.8 µM	32.7 µM	41.3 µM	28.5 µM	–	33.7 µM	–	–	–	–	–	–	–	–	–	–	–
OCC1CCCC(n2cnc3c(=S)nc[nH]c32)O1 (stereo unspecified)	> 100 µM	–	> 100 µM	> 100 µM	> 100 µM	–	> 100 µM	> 100 µM	> 100 µM	> 100 µM	–	–	–	–	–	–	–	–	–	–
